Results on one compound are retold here after EPA's ToxValDB 9.5 (doi:10.2903/j.efsa.2011.1958).

One data set concerns Anas platyrhynchos. The following applies: acute; oral; unspecified; mortality.
For the next data set, the system named is Apis mellifera. The following applies: acute; duration: 48 hours; oral; unspecified; mortality.
The test system of the next data set is Colinus virginianus. Particulars: acute, oral, mortality.
The next data set has as its system Daphnia magna. Particulars: chronic/long-term; duration: 21 days; reproduction.
The test system of the next data set is Landoltia sp. Particulars: acute; duration: 14 days; growth.
In another data set the test system is Oncorhynchus mykiss. The following applies: acute; duration: 96 hours; mortality.
In another data set the test system is Pimephales promelas. Particulars: chronic/long-term; duration: 28 days; growth.
The test system of a further data set is Tagia sp. The following applies: acute; duration: 14 days; mortality.
In another data set the test system is Aphidius rhopalosiphi. As to the kind of experiment: LR50; higher = less toxic. The following applies: acute; duration: 7 days; reproduction.
The next data set deals with Typhlodromus pyri. As to the kind of experiment: LR50; higher = less toxic. The following applies: acute; duration: 48 hours; reproduction.

Converted amounts (≈) assume the structure as drawn. “And” between values parts separate entries of the source, which are not always exact repeats. Identical values can stand only once. A value given as a limit tells only on which side of the number the result lay.

As usually defined, the NOAEL is the highest tested level that showed no adverse finding. `CN(C)C(=O)Nc1cccc(C(F)(F)F)c1` [Fluometuron]: the LD50 with Anas platyrhynchos is 2970 mg/kg; with Apis mellifera, more than 34 µg/piece; in the data set on Colinus virginianus, more than 2150 mg/kg; in the data set on Rattus norvegicus (acute, oral, mortality), more than 5000 mg/kg. Besides, the LC50 with Colinus virginianus (diet) is > 1600 mg/kg and 4310 mg/kg; with Oncorhynchus mykiss it was 30 mg/L (≈ 129 µM); in the data set with Tagia sp. it was 1000 mg/kg. The values for the NOEC with Daphnia magna, in the data set on Landoltia sp. and in the data set on Pimephales promelas were 6.6 mg/L, 0.185 mg/L and 3.1 mg/L, respectively. Also, the NOAEL with Rattus norvegicus (chronic, duration: 104 weeks, hematological) was determined as 0.553 mg/kg-day; in the data set with Rattus norvegicus (reproduction developmental, other) it was 0.8 mg/kg-day. Moreover, the NOEL with Rattus norvegicus (developmental, development) amounted to 24 mg/kg-day. Also, the LR50 with Aphidius rhopalosiphi is 398 g/ha; in the data set on Typhlodromus pyri, 28.9 g/ha.
